The results in this text go back to patent publication US20230105667A1, “MESENCHYMAL STROMAL CELLS AND EXTRACELLULAR VESICLES FOR TREATING VIRAL INFECTIONS, INFLAMMATION, AND TISSUE FIBROSIS” (EXOSTEM BIOTEC LTD., priority 2020, published 2023).

Each structure is given as a SMILES string.

The test system of this assay is Immortalized human bronchial epithelial (HBE) cells. In kind it is cell-based. The note with it: HBE cells with S1 peptide; EVs, drugs alone or combined.

Consider `C=C(C)[C@@H]1CCC(C)=C[C@H]1c1c(O)cc(CCCCC)cc1O` [CBD, cannabidiol], for which the “reduction in inflammation (TNFα expression)” value is listed as “modest reduction in inflammation”.

In the case of `CN(C)C(=N)N=C(N)N` [metformin], the “reduction in inflammation (TNFα expression)” value was “modest reduction in inflammation”.
